According to patent US20030144249A1, “Use of organophosphorous compounds for producing a medicament for treating infections” (priority 2000, published 2003):

Assays:
Plasmodium falciparum = experiment: Antimalarial activity, in vitro culture, [3H]-hypoxanthine incorporation; format: cell-based; conditions: 72 h, asynchronous culture, 48 h + 24 h with [3H]-hypoxanthine, read-out: IC50 (nM) of malaria culture (Plasmodium falciparum)
Description: The antimalarial activity of substances 1 to 8 (see page 5) was determined using in vitro cultures of the causative organism of malaria, Plasmodium falciparum. 200 μl of an asynchronous Plasmodium falciparum culture with a 0.4% blood parasite content and a heamatocrit of 2% were loaded into each of the wells of a 96 well microtitre plate. A serial dilution series of the compounds was then prepared in steps of three between concentrations of 100 and 0.14 μmol l^−1. The plates were incubated at 37° C., 3% CO2 and 5% O2 over a period of 48 hours. 30 μl of medium supplemented with 27 μCi ml^−1 of [^3H]-hypoxanthine were then added to each well. After 24 hours' incubation, the parasites were harvested by filtration through glass fibre filters and the incorporated radioactivity was measured. Inhibition of parasite growth was measured as the percentage inhibition of tritium incorporation. Inhibition of parasite growth was expressed as the percentage inhibition of tritium incorporation relative to a comparison without the substance. The median inhibitory concentration (IC50) of the substance was determined by extrapolating the values.

Abutilon theophrasti [1] = experiment: Herbicidal activity, soil, pre-emergence; format: in vivo; conditions: Soil, pre-emergence, 2000 gram/hectare, read-out: Herbicidal activity, Abutilon theophrasti
Description: (§1) Herbicidal activity is determined using standard methods.
(§2) Substances 1 to 8 listed on page 5 are again investigated.

Setaria viridis [2] = experiment: Herbicidal activity, soil, pre-emergence; format: in vivo; conditions: Soil, pre-emergence, 2000 gram/hectare, read-out: Herbicidal activity, Setaria viridis
Description: as §1, §2

Alopecurus myosuroides [3] = experiment: Herbicidal activity, soil, pre-emergence; format: in vivo; conditions: Soil, pre-emergence, 2000 gram/hectare, read-out: Herbicidal activity, Alopecurus myosuroides
Description: as §1, §2

Galium aperine [4] = experiment: Herbicidal activity, soil, pre-emergence; format: in vivo; conditions: Soil, pre-emergence, 2000 gram/hectare, read-out: Herbicidal activity, Galium aperine
Description: as §1, §2

Beta vulgaris [5] = experiment: Herbicidal activity, soil, pre-emergence; format: in vivo; conditions: Soil, pre-emergence, 2000 gram/hectare, read-out: Herbicidal activity, Beta vulgaris
Description: as §1, §2

Amaranthus retroflexus [6] = experiment: Herbicidal activity, soil, pre-emergence; format: in vivo; conditions: Soil, pre-emergence, 2000 gram/hectare, read-out: Herbicidal activity, Amaranthus retroflexus
Description: as §1, §2

Zea mays [7] = experiment: Herbicidal activity, soil, pre-emergence; format: in vivo; conditions: Soil, pre-emergence, 2000 gram/hectare, read-out: Herbicidal activity, Zea mays
Description: as §1, §2

Cyperus esculentus [8] = experiment: Herbicidal activity, soil, pre-emergence; format: in vivo; conditions: Soil, pre-emergence, 2000 gram/hectare, read-out: Herbicidal activity, Cyperus esculentus
Description: as §1, §2

Xanthium strumarium [9] = experiment: Herbicidal activity, soil, pre-emergence; format: in vivo; conditions: Soil, pre-emergence, 2000 gram/hectare, read-out: Herbicidal activity, Xanthium strumarium
Description: as §1, §2

Avena fatua [10] = experiment: Herbicidal activity, soil, pre-emergence; format: in vivo; conditions: Soil, pre-emergence, 2000 gram/hectare, read-out: Herbicidal activity, Avena fatua
Description: as §1, §2

Sinapis arvensis [11] = experiment: Herbicidal activity, soil, pre-emergence; format: in vivo; conditions: Mutarda arvensis; Soil, pre-emergence; 2000 gram/hectare; read-out: Herbicidal activity, Sinapis arvensis
Description: as §1, §2

Abutilon theophrasti [12] = experiment: Herbicidal activity, soil, post-emergence; format: in vivo; conditions: Soil, post-emergence, 2000 gram/hectare, read-out: Herbicidal activity, Abutilon theophrasti
Description: as §1, §2

Setaria viridis [13] = experiment: Herbicidal activity, soil, post-emergence; format: in vivo; conditions: Soil, post-emergence, 2000 gram/hectare, read-out: Herbicidal activity, Setaria viridis
Description: as §1, §2

Alopecurus myosuroides [14] = experiment: Herbicidal activity, soil, post-emergence; format: in vivo; conditions: Soil, post-emergence, 2000 gram/hectare, read-out: Herbicidal activity, Alopecurus myosuroides
Description: as §1, §2

Galium aperine [15] = experiment: Herbicidal activity, soil, post-emergence; format: in vivo; conditions: Soil, post-emergence, 2000 gram/hectare, read-out: Herbicidal activity, Galium aperine
Description: as §1, §2

Beta vulgaris [16] = experiment: Herbicidal activity, soil, post-emergence; format: in vivo; conditions: Soil, post-emergence, 2000 gram/hectare, read-out: Herbicidal activity, Beta vulgaris
Description: as §1, §2

Amaranthus retroflexus [17] = experiment: Herbicidal activity, soil, post-emergence; format: in vivo; conditions: Soil, post-emergence, 2000 gram/hectare, read-out: Herbicidal activity, Amaranthus retroflexus
Description: as §1, §2

Zea mays [18] = experiment: Herbicidal activity, soil, post-emergence; format: in vivo; conditions: Soil, post-emergence, 2000 gram/hectare, read-out: Herbicidal activity, Zea mays
Description: as §1, §2

Cyperus esculentus [19] = experiment: Herbicidal activity, soil, post-emergence; format: in vivo; conditions: Soil, post-emergence, 2000 gram/hectare, read-out: Herbicidal activity, Cyperus esculentus
Description: as §1, §2

Xanthium strumarium [20] = experiment: Herbicidal activity, soil, post-emergence; format: in vivo; conditions: Soil, post-emergence, 2000 gram/hectare, read-out: Herbicidal activity, Xanthium strumarium
Description: as §1, §2

Avena fatua [21] = experiment: Herbicidal activity, soil, post-emergence; format: in vivo; conditions: Soil, post-emergence, 2000 gram/hectare, read-out: Herbicidal activity, Avena fatua
Description: as §1, §2

Sinapis arvensis [22] = experiment: Herbicidal activity, soil, post-emergence; format: in vivo; conditions: Mutarda arvensis; Soil, post-emergence; 2000 gram/hectare; read-out: Herbicidal activity, Sinapis arvensis
Description: as §1, §2

[23] = target: T1, DOXP reductoisomerase from Helicobacter pylori (Helicobacter pylori, UniProt P56139); experiment: DOXP reductoisomerase inhibition (NADPH oxidation at 365 nm); format: biochemical; conditions: recombinant enzyme; 0.3 mM NADPH, 1 mM DOXP, pH 7.5; read-out: IC50 (nM) of DOXP reductoisomerase from Helicobacter pylori
T1 construct: made in house; host or cells: Helicobacter pylori (so in the source)
T1 sequence (P56139 1-368): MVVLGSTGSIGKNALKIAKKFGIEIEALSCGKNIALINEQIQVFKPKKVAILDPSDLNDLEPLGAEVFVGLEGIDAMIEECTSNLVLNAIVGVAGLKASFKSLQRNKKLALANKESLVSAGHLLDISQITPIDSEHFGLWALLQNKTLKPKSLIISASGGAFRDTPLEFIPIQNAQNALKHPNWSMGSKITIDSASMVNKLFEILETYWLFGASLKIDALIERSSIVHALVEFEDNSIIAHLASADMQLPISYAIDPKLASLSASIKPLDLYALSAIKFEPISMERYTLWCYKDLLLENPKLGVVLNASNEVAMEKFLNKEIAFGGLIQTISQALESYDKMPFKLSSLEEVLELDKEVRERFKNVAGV
Description: The DOXP reductoisomerase of Helicobacter pylori was expressed as a recombinant protein in Helicobacter pylori. The activity of DOXP reductoisomerase was determined in a batch containing 100 mM tris-HCl (pH=7.5), 1 mM MnCl2, 0.3 mM NADPH and 1 mM DOXP.
The oxidation of NADPH was here measured at 365 nm in a spectrophotometer. The inhibition studies were performed by measuring the activity of DOXP reductoisomerase in the presence of compounds 1 to 8 (see page 5) at various concentrations between 0. 1 and 100 μmol l^−1.

Lepidium = experiment: Herbicidal activity, water, pre-emergence; format: in vivo; conditions: Water, 4000 gram/hectare, read-out: Herbicidal activity, Lepidium
Description: as §1, §2

Rice = experiment: Herbicidal activity, water, pre-emergence; format: in vivo; conditions: Oryza sativa, Water, 4000 gram/hectare, read-out: Herbicidal activity, Rice
Description: as §1, §2

Solanum = experiment: Herbicidal activity, water, pre-emergence; format: in vivo; conditions: Water, 4000 gram/hectare, read-out: Herbicidal activity, Solanum
Description: as §1, §2

Echinochloa = experiment: Herbicidal activity, water, pre-emergence; format: in vivo; conditions: Water, 4000 gram/hectare, read-out: Herbicidal activity, Echinochloa
Description: as §1, §2

How did the IC50 (Plasmodium falciparum) turn out when `CN(CC(=O)P(C)(C)=O)CN(O)C(=O)C(F)(F)F` [Compound 7, 2-(N-(N-Trifluoracetyl-N-hydroxyaminomethyl)-N-methyl)amino-1-oxoethyldimethylphosphine oxide] was run?
The IC50 was 1100 nM.

What about the pest or weed control at 2000 g/ha (Abutilon theophrasti [1]) of the same compound?
Its pest or weed control at 2000 g/ha is 0%.

And the pest or weed control at 2000 g/ha (Setaria viridis [2])?
Its pest or weed control at 2000 g/ha is 0%.

What about the pest or weed control at 2000 g/ha (Alopecurus myosuroides [3]) of the same compound?
Its pest or weed control at 2000 g/ha is 30%.

And the pest or weed control at 2000 g/ha (Galium aperine [4])?
The pest or weed control at 2000 g/ha was 0%.

And the plant injury at 2000 g/ha (Beta vulgaris [5])?
Its plant injury at 2000 g/ha is 70%.

And the pest or weed control at 2000 g/ha (Amaranthus retroflexus [6])?
Its pest or weed control at 2000 g/ha is 20%.

What about the plant injury at 2000 g/ha (Zea mays [7]) of the same compound?
Its plant injury at 2000 g/ha is 30%.

What about the pest or weed control at 2000 g/ha (Cyperus esculentus [8]) of the same compound?
Its pest or weed control at 2000 g/ha is 0%.

And the pest or weed control at 2000 g/ha (Xanthium strumarium [9])?
The pest or weed control at 2000 g/ha was 0%.

And the pest or weed control at 2000 g/ha (Avena fatua [10])?
The pest or weed control at 2000 g/ha was 30%.

And the pest or weed control at 2000 g/ha (Sinapis arvensis [11])?
The pest or weed control at 2000 g/ha was 30%.

And the pest or weed control at 2000 g/ha (Abutilon theophrasti [12])?
Its pest or weed control at 2000 g/ha is 50%.

And the pest or weed control at 2000 g/ha (Setaria viridis [13])?
Its pest or weed control at 2000 g/ha is 90%.

And the pest or weed control at 2000 g/ha (Alopecurus myosuroides [14])?
The pest or weed control at 2000 g/ha was 80%.

What about the pest or weed control at 2000 g/ha (Galium aperine [15]) of the same compound?
Its pest or weed control at 2000 g/ha is 70%.

What about the plant injury at 2000 g/ha (Beta vulgaris [16]) of the same compound?
The plant injury at 2000 g/ha was 50%.

And the pest or weed control at 2000 g/ha (Amaranthus retroflexus [17])?
Its pest or weed control at 2000 g/ha is 50%.

What about the plant injury at 2000 g/ha (Zea mays [18]) of the same compound?
The plant injury at 2000 g/ha was 70%.

And the pest or weed control at 2000 g/ha (Cyperus esculentus [19])?
Its pest or weed control at 2000 g/ha is 0%.

And the pest or weed control at 2000 g/ha (Xanthium strumarium [20])?
The pest or weed control at 2000 g/ha was 90%.

What about the pest or weed control at 2000 g/ha (Avena fatua [21]) of the same compound?
The pest or weed control at 2000 g/ha was 80%.

What about the pest or weed control at 2000 g/ha (Sinapis arvensis [22]) of the same compound?
Its pest or weed control at 2000 g/ha is 70%.

What about the IC50 [23] of the same compound?
Its IC50 is 300 nM.

And the pest or weed control at 4000 g/ha (Lepidium)?
The pest or weed control at 4000 g/ha was 40%.

And the plant injury at 4000 g/ha (Rice)?
Its plant injury at 4000 g/ha is 30%.

And the pest or weed control at 4000 g/ha (Solanum)?
Its pest or weed control at 4000 g/ha is 30%.

What about the pest or weed control at 4000 g/ha (Echinochloa) of the same compound?
Its pest or weed control at 4000 g/ha is 40%.
